From the supplement of paper PMC10331698
± gives the standard deviation of the averaged measurements.

Columns and labels:
Test in all cases: level (log10 ratio to DMSO vehicle control); higher = higher biomarker level / cell amount than vehicle control
Details in all cases: in DMSO
[1] = compound: O=P(O)(O)CCC(F)(F)C(F)(F)C(F)(F)C(F)(F)C(F)(F)C(F)(F)C(F)(F)C(F)(F)F [((Perfluorooctyl)ethyl)phosphonic acid]
Experimental: (§1)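 BioMAP Diversity Plus panel of 12 human primary cell co-culture systems (3C, 4H, LPS, SAg, BT, BF4T, BE3C, CASM3C, HDF3CGF, KF3CT, MyoF, Mphg). Compounds were added 1 h before stimulation and left for 24 h (MyoF 48 h; BT 72 h for soluble read-outs or 6 d for IgG). Biomarkers were read by ELISA, cytotoxicity by SRB, PBMC viability and proliferation by Alamar Blue. Each well value was divided by the mean of 8 DMSO control wells on the same plate and log10 transformed; duplicate blinded samples were tested at 4 concentrations.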

[2] = compound: O=S(=O)(O)C(F)(F)C(F)(F)C(F)(F)C(F)(F)F [Perfluorobutanesulfonic acid]
Experimental: as §1

[3] = compound: O=C(O)CCC(F)(F)C(F)(F)C(F)(F)F [3:3 Fluorotelomer carboxylic acid]
Experimental: as §1

[4] = compound: OCC(F)(F)C(F)(F)C(F)(F)F [1H,1H-Heptafluorobutanol]
Experimental: as §1

[5] = compound: FC(F)(F)C(F)(F)C(F)(F)C(F)(F)C(F)(F)C(F)(F)C(F)(F)CCI [1-Iodo-1H,1H,2H,2H-perfluorononane]
Experimental: as §1

[6] = compound: C=CC(=O)OCCC(F)(F)C(F)(F)C(F)(F)C(F)(F)F [2-(Perfluorobutyl)ethyl acrylate]
Experimental: as §1

[7] = compound: C=C(C)C(=O)OCC(F)(F)C(F)(F)C(F)(F)C(F)(F)C(F)(F)C(F)(F)C(F)(F)F
Experimental: as §1

Test System	level (log10) ([1]; 6700 nM)	level (log10) ([1]; 20000 nM)	level (log10) ([1]; 60000 nM)	level (log10) ([2]; 6700 nM)	level (log10) ([2]; 20000 nM)	level (log10) ([2]; 60000 nM)	level (log10) ([3]; 6700 nM)	level (log10) ([3]; 20000 nM)	level (log10) ([3]; 60000 nM)	level (log10) ([4]; 6700 nM)	level (log10) ([4]; 20000 nM)	level (log10) ([4]; 60000 nM)	level (log10) ([5]; 6700 nM)	level (log10) ([5]; 20000 nM)	level (log10) ([6]; 6700 nM)	level (log10) ([6]; 20000 nM)	level (log10) ([6]; 60000 nM)	level (log10) ([7]; 6700 nM)	level (log10) ([7]; 20000 nM)
CASM3C:CCL2/MCP-1	-0.007 ± 0.0071	-0.0085 ± 0.013	0.012 ± 0.058	-0.0085 ± 0.0092	-0.0125 ± 0.035	-0.0045 ± 0.021	-0.011 ± 0.021	-0.015 ± 0.0028	-0.0135 ± 0.022	0.006 ± 0.0099	0.006 ± 0.0057	0.0095 ± 0.026	0.003 ± 0.0099	0.02 ± 0.018	-0.001 ± 0.0099	-0.0085 ± 0.0064	-0.0035 ± 0.0064	-0.015 ± 0.0042	0.007 ± 0.018
CASM3C:CD87/uPAR	-0.022 ± 0.013	-0.0345 ± 0.015	-0.041 ± 0.014	-0.0275 ± 0.03	-0.047 ± 0.045	-0.0575 ± 0.0092	-0.01 ± 0.0071	0.002 ± 0.011	-0.01 ± 0.018	-0.0045 ± 0.026	-0.013 ± 0.016	0.015 ± 0.011	-0.0105 ± 0.028	-0.013 ± 0.028	-0.006 ± 0.024	-0.027 ± 0.018	-0.023 ± 0.0042	0.0005 ± 0.0035	0.003 ± 0.023
CASM3C:CD106/VCAM-1	-0.0325 ± 0.00071	0 ± 0.0014	0.0335 ± 0.019	-0.0465 ± 0.021	-0.0255 ± 0.025	-0.033 ± 0.0057	-0.0255 ± 0.0035	-0.03 ± 0.0057	-0.0295 ± 0.015	0.0035 ± 0.033	0.0065 ± 0.012	-0.0015 ± 0.0092	-0.019 ± 0.0099	-0.0645 ± 0.012	-0.0175 ± 0.023	-0.0475 ± 0.0078	-0.138 ± 0.016	0.011 ± 0.0014	-0.0155 ± 0.046
CASM3C:CD141/Thrombomodulin	-0.01 ± 0.0071	-0.014 ± 0.0042	0.0245 ± 0.015	0.01 ± 0.028	-0.0095 ± 0.016	0.0075 ± 0.016	-0.0065 ± 0.005	-0.0085 ± 0.011	-0.0185 ± 0.0035	-0.01 ± 0.013	-0.0065 ± 0.0021	-0.0145 ± 0.005	0.0135 ± 0.0035	0.0065 ± 0.03	0.006 ± 0.018	-0.0125 ± 0.0064	0.052 ± 0.0014	0.002 ± 0.048	-0.0265 ± 0.035
CASM3C:CD142/Tissue Factor	-0.0235 ± 0.019	-0.006 ± 0.0099	0.046 ± 0.079	-0.0085 ± 0.0035	-0.0115 ± 0.018	0.0135 ± 0.012	0.0015 ± 0.012	-0.0015 ± 0.013	-0.0305 ± 0.054	0.0005 ± 0.0078	-0.0225 ± 0.013	-0.015 ± 0.0057	0.0155 ± 0.049	-0.055 ± 0.0028	-0.027 ± 0.011	-0.0455 ± 0.0092	-0.0585 ± 0.0092	0.002 ± 0.0057	-0.0195 ± 0.0021
CASM3C:CXCL8/IL-8	-0.01 ± 0.02	0 ± 0.024	0.023 ± 0.048	0.0255 ± 0.049	0.0255 ± 0.025	0.0375 ± 0.025	-0.0025 ± 0.0021	-0.008 ± 0.0014	0.0085 ± 0.022	0.007 ± 0.0099	0.0045 ± 0.021	0.014 ± 0.04	0.004 ± 0.0042	0.004 ± 0.0028	-0.0045 ± 0.0064	-0.009 ± 0.0014	-0.028 ± 0.014	-0.015 ± 0.018	-0.001 ± 0.016
CASM3C:CXCL9/MIG	0.0115 ± 0.011	0.019 ± 0.028	0.041 ± 0.03	0.01 ± 0.028	0.0135 ± 0.035	0.0465 ± 0.0092	0.004 ± 0.0028	0.008 ± 0.0099	0.002	0.003 ± 0.0014	-0.006 ± 0.013	0.015 ± 0.044	-0.0355 ± 0.025	-0.057 ± 0.042	-0.0005 ± 0.012	-0.025 ± 0.0071	-0.121 ± 0.014	0.0005 ± 0.011	0.014 ± 0.014
